According to patent US10494397B2, “Rebaudioside analogs” (PepsiCo, Inc., priority 2016, dated 2019):

Tested on: Tasters
Test: Sensory evaluation of test material as a sweetener (taster panel, scale of 1 to 10)
Type: in vivo, human
Set-up: key: not observed or only minimally observed (−); highly observed (+++)
Conditions: for Sweet Quality: based upon temporal profile (sweet onset, linger) and attributes such as syrupy, round, clean; for Bitterness: taster comments and scores converted into symbols; for Sweet Intensity: averaged taster scores, scale 1 to 10 with Reb A 400 ppm = 5 and sucrose 6.5% = 10, noseclips, blinded
Text: Sample preparation protocol for testing material as a sweetener: Tasters wore noseclips and were blinded to the identity of the test material. Tasters sampled 400 ppm Rebaudioside A and 6.5 Brix sucrose prior to the test material. Reb A 400 ppm was assigned a 5 on the scale of 1 to 10 as shown in FIG. 8 and sucrose (6.5%) was assigned a 10 on the same scale. Tasters were asked to rinse their mouths 5 times with water between tasting each sample. Tasters were then given the test article and asked to rank the test article for sweetness on the noted scale. Tasters were also asked to provide comments about bitterness, linger, flavors, and any other perceptions.
Numerical scores from all tasters were averaged and, taken together with comments regarding sweet quality, bitterness and off-tastes, converted into the symbols “−,” “+,” “++,” and “+++” to indicate whether a given characteristic was not observed or only minimally observed (−) or highly observed (+++). For example, a sample having a “−” in both sweet intensity and bitterness should be understood as a sample having minimal or no sweetness and minimal or no bitter flavor. By contrast, a sample having a “+++” in both sweet intensity and bitterness should be understood as a sample having highly observed sweet intensity and bitterness.
Preparation of Reb A in this experiment: Prepare 400 ppm Reb A in water (pH=7): 40 mg of Rebaudioside A was dissolved with stirring in 100 ml of water at room temperature.
Preparation of Sucrose in this experiment: Prepare 6.5% Sucrose in water (pH=7): weight 6.5 gr of Sucrose and dissolve it in 93.5 gr water (total 100 gr)
• Sweet quality was based upon a temporal profile (sweet onset, linger) and attributes such as syrupy, round, clean.

## OC[C@H]1O[C@@](CO)(O[C@H]2O[C@H](CO)[C@@H](O)[C@H](O)[C@H]2O)[C@@H](O)[C@@H]1O [Sucrose, reference compound]
  Sweet Quality: +++
  Bitterness: −

## C=C1C[C@@]23CC[C@H]4[C@@](C)(CCC[C@@]4(C)C(=O)O[C@@H]4O[C@H](CO)[C@H](O)[C@H](O)[C@H]4O)[C@@H]2CC[C@]1(O[C@@H]1O[C@H](CO)[C@@H](O)[C@H](O[C@@H]2O[C@H](CO)[C@@H](O)[C@H](O)[C@H]2O)[C@H]1O[C@@H]1O[C@@H](C)[C@H](O)[C@@H](O)[C@H]1O)C3 [Compound 7F, Rebaudioside C Galactoside]
  Sweet Intensity: −
  Sweet Quality: −
  Bitterness: −

## C=C1C[C@@]23CC[C@H]4[C@@](C)(CCC[C@@]4(C)C(=O)O[C@@H]4OC[C@@H](O)[C@H](O)[C@H]4O)[C@@H]2CC[C@]1(O[C@@H]1O[C@H](CO)[C@@H](O)[C@H](O[C@@H]2O[C@H](CO)[C@@H](O)[C@H](O)[C@H]2O)[C@H]1O[C@@H]1O[C@H](CO)[C@@H](O)[C@H](O)[C@H]1O)C3 [Compound 7C, Rebaudioside B Xyloside]
  Sweet Intensity: +++

## C=C1C[C@@]23CC[C@H]4[C@@](C)(CCC[C@@]4(C)C(=O)O[C@@H]4OC[C@@H](O)[C@H](O)[C@H]4O)[C@@H]2CC[C@]1(O[C@@H]1O[C@H](CO)[C@@H](O)[C@H](O[C@@H]2O[C@H](CO)[C@@H](O)[C@H](O)[C@H]2O)[C@H]1O[C@@H]1O[C@@H](C)[C@H](O)[C@@H](O)[C@H]1O)C3 [Compound 7E, Rebaudioside C Xyloside]
  Sweet Intensity: −
  Sweet Quality: −
  Bitterness: −

## C=C1C[C@@]23CC[C@H]4[C@@](C)(CCC[C@@]4(C)C(=O)NCC(=O)OC)[C@@H]2CC[C@]1(O[C@@H]1O[C@H](CO)[C@@H](O)[C@H](O[C@@H]2O[C@H](CO)[C@@H](O)[C@H](O)[C@H]2O)[C@H]1O[C@@H]1O[C@H](CO)[C@@H](O)[C@H](O)[C@H]1O)C3 [Compound 5A1, Rebaudioside B—Glycine Methyl ester]
  Sweet Intensity: −
  Sweet Quality: −
  Bitterness: +++

## C=C1C[C@@]23CC[C@H]4[C@@](C)(CCC[C@@]4(C)C(=O)N[C@H](Cc4ccccc4)C(=O)OC)[C@@H]2CC[C@]1(O[C@@H]1O[C@H](CO)[C@@H](O)[C@H](O[C@@H]2O[C@H](CO)[C@@H](O)[C@H](O)[C@H]2O)[C@H]1O[C@@H]1O[C@H](CO)[C@@H](O)[C@H](O)[C@H]1O)C3 [Compound 5E1, Rebaudioside B- D-Phenylalanine Methyl ester]
  Sweet Intensity: −
  Sweet Quality: −
  Bitterness: +++

## C=C1C[C@@]23CC[C@H]4[C@@](C)(CCC[C@@]4(C)C(=O)N[C@@H](C(=O)O)C(C)C)[C@@H]2CC[C@]1(O[C@@H]1O[C@H](CO)[C@@H](O)[C@H](O[C@@H]2O[C@H](CO)[C@@H](O)[C@H](O)[C@H]2O)[C@H]1O[C@@H]1O[C@H](CO)[C@@H](O)[C@H](O)[C@H]1O)C3 [Compound 5D2]
  Sweet Intensity: +++
  Bitterness: −

## C=C1C[C@@]23CC[C@H]4[C@@](C)(CCC[C@@]4(C)C(=O)N[C@H](C)C(=O)OC)[C@@H]2CC[C@]1(O[C@@H]1O[C@H](CO)[C@@H](O)[C@H](O[C@@H]2O[C@H](CO)[C@@H](O)[C@H](O)[C@H]2O)[C@H]1O[C@@H]1O[C@H](CO)[C@@H](O)[C@H](O)[C@H]1O)C3 [Compound 5C1, Rebaudioside B- D-Alanine Methyl ester]
  Sweet Quality: −

## C=C1C[C@@]23CC[C@H]4[C@@](C)(CCC[C@@]4(C)C(=O)O[C@@H]4O[C@H](CO)[C@@H](O)[C@H](O)[C@H]4O)[C@@H]2CC[C@]1(O[C@@H]1O[C@H](CO)[C@@H](O)[C@H](O[C@@H]2O[C@H](CO)[C@@H](O)[C@H](O)[C@H]2O)[C@H]1O[C@@H]1O[C@H](CO)[C@@H](O)[C@H](O)[C@H]1O)C3 [Rebaudioside A]
  Sweet Intensity: +++
